Source: PMC6017736, “Indole-3-Carbonitriles as DYRK1A Inhibitors by Fragment-Based Drug Design” (Molecules : A Journal of Synthetic Chemistry and Natural …, 2018)
Marks after values point to notes of the source that are not given here.

Key:
DYRK1B = DYRK1B (Homo sapiens, UniProt Q9Y463); experiment: Protein kinase assay ([γ-33P]-ATP, RS peptide substrate), DYRK1B; type: biochemical; conditions: 15 µM ATP; read-out: IC50 DYRK 1B
Description: (§1) DYRK1A, 1B, 2, 3 (human, recombinant, expressed in E. coli as GST fusion proteins) and CLK1, 2, 3, and 4 (mouse, recombinant, expressed in E. coli as GST fusion proteins) were assayed as described for GSK-3 in Buffer A (supplemented extemporaneously with 0.15 mg BSA/mL + 1 mM DTT) with 1 µg of RS peptide ([…]) as a substrate.

DYRK3 = biological target: T1, DYRK3 (Homo sapiens, UniProt O43781); experiment: Protein kinase assay ([γ-33P]-ATP, RS peptide substrate), DYRK3; type: biochemical; conditions: for IC50: 15 µM ATP; for inhibition at 10 µM: 10 µM compound, read-out: Inhibition at 10 µM DYRK3 (class symbol)
T1 sequence (O43781 1-588): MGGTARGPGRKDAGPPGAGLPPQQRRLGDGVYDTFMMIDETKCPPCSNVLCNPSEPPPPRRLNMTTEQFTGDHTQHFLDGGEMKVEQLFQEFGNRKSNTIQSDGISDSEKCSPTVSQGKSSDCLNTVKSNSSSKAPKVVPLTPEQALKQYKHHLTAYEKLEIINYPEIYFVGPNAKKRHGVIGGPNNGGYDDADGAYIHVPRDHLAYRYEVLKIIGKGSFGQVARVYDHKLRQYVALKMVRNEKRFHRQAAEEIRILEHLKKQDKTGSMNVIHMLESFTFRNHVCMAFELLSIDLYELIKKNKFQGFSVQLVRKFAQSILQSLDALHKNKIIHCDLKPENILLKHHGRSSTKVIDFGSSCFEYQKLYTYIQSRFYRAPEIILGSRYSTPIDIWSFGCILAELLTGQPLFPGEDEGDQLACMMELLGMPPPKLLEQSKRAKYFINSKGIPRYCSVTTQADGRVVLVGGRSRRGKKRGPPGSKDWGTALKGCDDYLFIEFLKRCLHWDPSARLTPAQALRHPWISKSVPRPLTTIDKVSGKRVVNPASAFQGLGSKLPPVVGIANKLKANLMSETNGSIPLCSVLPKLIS
Description: as §1

CLK2 = CLK2 (Mus musculus, UniProt O35491); experiment: Protein kinase assay ([γ-33P]-ATP, RS peptide substrate), CLK2; type: biochemical; conditions: 15 µM ATP
Description: as §1

[1] = Thermodynamic solubility, shake-flask method with HPLC quantification; type: physicochemical; conditions: phosphate buffer pH 7.4, 25 °C
Description: For solubility assays an aqueous phosphate buffer pH 7.4 was used. The buffer was prepared by dissolving Na2HPO4 × 2 H2O (298 mg), KH2PO4 (19 mg) and NaCl (800 mg) in water (100 mL). The pH was adjusted to 7.4 by addition of hydrochloric acid. The thermodynamic solubility was determined using a shake-flask method with quantification by a HPLC method. The test compounds (500 µg) were incubated with aqueous phosphate buffer pH 7.4 (400 µL) in sealed Whatman MiniUniPrep vials (GE Healthcare, Freiburg, Germany). The mixtures were shaken at 25 °C and 400 rpm for 24–96 h (IKA KS 3000 ic control, IKA-Werke, Staufen, Germany). After 24 h, 48 h and 72 h, the mixtures were visually inspected for remaining solids and the solids were filtered off. The concentrations in the resulting saturated solutions were quantified by isocratic HPLC using calibration with external standard. If equilibrium was not reached after 72 h, solubility of a further sample was determined after 96 h. For calibration, a stock solution of 10 mM of the test compounds in DMSO was prepared and the stock solution was diluted with ACN to suitable concentrations. The AUC at the wavelength maxima was used for quantification.

CLK3 = CLK3 (Mus musculus, UniProt O35492); experiment: Protein kinase assay ([γ-33P]-ATP, RS peptide substrate), CLK3; type: biochemical; conditions: for IC50: 15 µM ATP; for inhibition at 10 µM: 10 µM compound, read-out: Inhibition at 10 µM CLK3 (class symbol)
Description: as §1

DYRK2 = biological target: T2, DYRK2 (Homo sapiens, UniProt Q92630); experiment: Protein kinase assay ([γ-33P]-ATP, RS peptide substrate), DYRK2; type: biochemical; conditions: for IC50: 15 µM ATP; for inhibition at 10 µM: 10 µM compound, read-out: Inhibition at 10 µM DYRK2 (class symbol)
T2 sequence (Q92630 1-601): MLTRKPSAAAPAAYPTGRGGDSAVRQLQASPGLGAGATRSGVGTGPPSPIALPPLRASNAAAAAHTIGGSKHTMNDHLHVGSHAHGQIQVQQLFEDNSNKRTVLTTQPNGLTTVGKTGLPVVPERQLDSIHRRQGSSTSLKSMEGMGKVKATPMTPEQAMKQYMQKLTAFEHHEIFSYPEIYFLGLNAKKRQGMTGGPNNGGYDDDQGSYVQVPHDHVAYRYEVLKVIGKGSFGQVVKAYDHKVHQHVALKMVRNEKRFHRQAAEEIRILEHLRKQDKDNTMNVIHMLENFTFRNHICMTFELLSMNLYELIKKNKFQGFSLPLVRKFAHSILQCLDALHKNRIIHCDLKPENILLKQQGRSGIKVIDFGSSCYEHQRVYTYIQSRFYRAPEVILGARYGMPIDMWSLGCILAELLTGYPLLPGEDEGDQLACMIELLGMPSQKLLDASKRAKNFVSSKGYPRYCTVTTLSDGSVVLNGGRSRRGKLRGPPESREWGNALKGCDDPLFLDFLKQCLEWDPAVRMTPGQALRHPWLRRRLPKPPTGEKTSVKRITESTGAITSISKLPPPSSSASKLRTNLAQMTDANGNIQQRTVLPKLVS
Description: as §1

CLK4 = CLK4 (Mus musculus, UniProt O35493); experiment: Protein kinase assay ([γ-33P]-ATP, RS peptide substrate), CLK4; type: biochemical; conditions: 15 µM ATP
Description: as §1

CLK1 = CLK1 (Mus musculus, UniProt P22518); experiment: Protein kinase assay ([γ-33P]-ATP, RS peptide substrate), CLK1; type: biochemical; conditions: 15 µM ATP
Description: as §1

[2] = Cytotoxicity, cell viability by tetrazolium dye assay (XTT assay); type: cell-based; conditions: human, HeLa cells, read-out: Viability of treated HeLa cells relative to control cells
Description: To evaluate the applicability of the 2-substituted indole-3-carbonitrile compounds in cell culture experiments, we assessed toxicity of 6f, 6h, 6s and 13b on HeLa cells by viability assays (Table 4).
The inhibitors were added to the cultured cells from stock solutions in DMSO to the desired final concentration. For cytotoxicity assays, HeLa cells were grown in 96-well plates (20,000–30,000 cells per well) and incubated with the test compounds for 3 days before cell viability was evaluated with the help of a tetrazolium dye assay (XTT assay, AppliChem GmbH, Darmstadt, Germany).

[3] = Kinetic solubility, laser nephelometry; type: physicochemical; conditions: phosphate buffer pH 7.4, nephelometry
Description: The kinetic solubility was determined using laser nephelometry. A stock solution of the test compounds in DMSO was prepared and further diluted with DMSO to achieve a dilution series of 8–12 solutions with different concentrations. The DMSO solutions (2 µL) were placed in a row on a 96-well plate and diluted with aqueous phosphate buffer pH 7.4 (198 µL). The well plate was scanned by a nephelometer (Nephelostar Plus, BMG Labtech, Ortenberg, Germany). Unsolved particles scatter the laser light which is detected by the nephelometer. The intensity of the scattered light is proportional to the particle concentration in the suspension. The intensity of the scattered light was plotted versus the concentration to obtain a kick off curve. The concentration at which the compounds began to precipitate was directly read out from the kick off curve.

DYRK1A [4] = biological target: T3, DYRK1A (Homo sapiens, UniProt Q13627); experiment: Protein kinase assay ([γ-33P]-ATP, RS peptide substrate), DYRK1A; type: biochemical; conditions: 15 µM ATP; read-out: IC50 DYRK 1A
DYRK1A [5] = biological target: T3, DYRK1A; experiment: Ligand-lipophilicity efficiency (pIC50 minus calculated logP)
Description: All new compounds were evaluated based on their physicochemical properties regarding Lipinski’s rule of five and the ligand-lipophilicity efficiency (LLE). Both concepts are used to assess the druglikeness of drug development candidates. […] LLE is calculated from pIC50 minus calculated logP [46].

GSK-3 = experiment: Protein kinase assay ([γ-33P]-ATP, GS-1 substrate), GSK-3; conditions: read-out: IC50 GSK3; 15 µM ATP
[6] = pIC50 (DYRK1A) minus calculated logP

Chain of DYRK1B (Q9Y463 whole entry, the tested form may be a part): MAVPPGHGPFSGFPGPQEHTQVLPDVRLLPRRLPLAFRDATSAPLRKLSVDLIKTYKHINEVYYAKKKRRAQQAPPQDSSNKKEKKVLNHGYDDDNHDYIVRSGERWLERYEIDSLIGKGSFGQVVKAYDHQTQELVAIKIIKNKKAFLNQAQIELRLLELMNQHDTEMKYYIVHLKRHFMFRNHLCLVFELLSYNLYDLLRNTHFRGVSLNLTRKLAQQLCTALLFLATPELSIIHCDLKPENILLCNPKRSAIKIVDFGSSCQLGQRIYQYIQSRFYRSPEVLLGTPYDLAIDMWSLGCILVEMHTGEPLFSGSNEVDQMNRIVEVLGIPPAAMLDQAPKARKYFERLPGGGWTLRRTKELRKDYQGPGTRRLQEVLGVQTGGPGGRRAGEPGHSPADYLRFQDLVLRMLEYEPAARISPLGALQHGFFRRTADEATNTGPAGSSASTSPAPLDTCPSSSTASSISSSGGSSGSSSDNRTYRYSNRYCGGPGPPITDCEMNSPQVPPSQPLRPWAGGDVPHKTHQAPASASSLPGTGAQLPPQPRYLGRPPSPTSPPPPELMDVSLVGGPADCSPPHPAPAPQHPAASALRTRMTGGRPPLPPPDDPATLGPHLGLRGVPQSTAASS
Chain of CLK2 (O35491 whole entry): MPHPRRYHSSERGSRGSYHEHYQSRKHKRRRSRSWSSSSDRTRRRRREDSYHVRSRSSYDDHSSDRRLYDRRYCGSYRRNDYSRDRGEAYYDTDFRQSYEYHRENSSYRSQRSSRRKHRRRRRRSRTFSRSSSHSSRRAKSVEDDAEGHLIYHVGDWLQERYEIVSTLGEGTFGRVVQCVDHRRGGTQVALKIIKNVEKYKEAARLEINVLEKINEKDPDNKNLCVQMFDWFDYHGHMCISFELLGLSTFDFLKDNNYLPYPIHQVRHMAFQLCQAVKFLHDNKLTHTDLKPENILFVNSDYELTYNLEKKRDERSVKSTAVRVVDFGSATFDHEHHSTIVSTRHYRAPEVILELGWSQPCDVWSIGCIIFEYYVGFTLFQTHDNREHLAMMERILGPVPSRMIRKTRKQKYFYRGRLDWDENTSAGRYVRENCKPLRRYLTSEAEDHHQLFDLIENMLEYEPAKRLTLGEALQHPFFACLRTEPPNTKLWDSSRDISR
Chain of CLK1 (P22518 whole entry): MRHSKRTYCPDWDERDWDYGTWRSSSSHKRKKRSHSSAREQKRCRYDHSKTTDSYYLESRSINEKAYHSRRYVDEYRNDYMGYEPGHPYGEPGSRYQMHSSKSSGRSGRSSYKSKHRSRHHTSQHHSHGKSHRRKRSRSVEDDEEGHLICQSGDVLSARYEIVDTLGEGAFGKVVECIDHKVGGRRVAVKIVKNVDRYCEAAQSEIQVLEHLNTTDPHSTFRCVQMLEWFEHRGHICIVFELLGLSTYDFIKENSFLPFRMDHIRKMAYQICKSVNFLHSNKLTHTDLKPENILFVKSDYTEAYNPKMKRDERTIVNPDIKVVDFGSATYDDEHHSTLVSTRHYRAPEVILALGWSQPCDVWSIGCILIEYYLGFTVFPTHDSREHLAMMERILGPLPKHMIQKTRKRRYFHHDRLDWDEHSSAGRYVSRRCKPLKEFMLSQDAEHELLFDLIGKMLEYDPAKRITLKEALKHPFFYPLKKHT
Chain of CLK3 (O35492 whole entry): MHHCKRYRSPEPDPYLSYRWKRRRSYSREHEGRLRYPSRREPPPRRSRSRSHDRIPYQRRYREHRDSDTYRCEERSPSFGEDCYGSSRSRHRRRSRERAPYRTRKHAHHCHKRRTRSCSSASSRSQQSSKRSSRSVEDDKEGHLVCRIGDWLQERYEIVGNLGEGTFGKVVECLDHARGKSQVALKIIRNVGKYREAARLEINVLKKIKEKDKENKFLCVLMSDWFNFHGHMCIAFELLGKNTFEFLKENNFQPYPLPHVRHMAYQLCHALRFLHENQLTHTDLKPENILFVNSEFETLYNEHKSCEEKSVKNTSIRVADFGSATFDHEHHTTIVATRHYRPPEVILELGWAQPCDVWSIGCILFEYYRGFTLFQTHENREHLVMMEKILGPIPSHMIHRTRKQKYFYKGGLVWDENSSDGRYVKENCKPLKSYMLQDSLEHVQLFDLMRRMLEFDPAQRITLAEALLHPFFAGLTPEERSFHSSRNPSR
Chain of CLK4 (O35493 whole entry): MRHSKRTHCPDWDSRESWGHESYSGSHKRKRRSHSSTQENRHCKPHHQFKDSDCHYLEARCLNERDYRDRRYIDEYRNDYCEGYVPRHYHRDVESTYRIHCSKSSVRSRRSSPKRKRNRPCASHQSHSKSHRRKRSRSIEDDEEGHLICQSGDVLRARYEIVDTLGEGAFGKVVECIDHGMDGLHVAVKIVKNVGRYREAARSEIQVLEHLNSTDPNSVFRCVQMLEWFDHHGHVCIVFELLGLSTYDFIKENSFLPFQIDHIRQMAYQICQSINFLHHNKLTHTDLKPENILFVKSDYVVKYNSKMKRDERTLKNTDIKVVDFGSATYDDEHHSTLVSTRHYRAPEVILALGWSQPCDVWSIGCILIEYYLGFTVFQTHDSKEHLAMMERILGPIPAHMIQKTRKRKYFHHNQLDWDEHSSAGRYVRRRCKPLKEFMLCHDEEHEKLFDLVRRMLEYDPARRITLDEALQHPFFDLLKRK

Row | Compound | IC50 (DYRK1B) [µM] | IC50 (DYRK3) [µM] | IC50 (CLK2) [µM] | Sexp., therm., pH 7.4 [1] | IC50 (CLK3) [µM] | IC50 (DYRK2) [µM] | IC50 (CLK4) [µM] | IC50 (CLK1) [µM] | viability at 3 days, 1 µM ([2]; 1 µM) [%] | viability at 3 days, 3 µM ([2]; 3 µM) [%] | viability at 3 days, 10 µM ([2]; 10 µM) [%] | Sexp., kin., pH 7.4 [3] | IC50 (DYRK1A [4]) [µM] | inhibition at 10 µM (DYRK3) [%] | inhibition at 10 µM (CLK3) [%] | inhibition at 10 µM (DYRK2) [%] | LLE (DYRK1A [5]; Table S2) | LLE (DYRK1A [5]; [6]) | IC50 (GSK-3) [µM]
1 | N#Cc1c(-c2ccccc2)[nH]c2c(Cl)cccc12 [Compound 6f, 7-Chloro-2-phenyl-1H-indole-3-carbonitrile] | > 10 | > 10 | > 10 | <0.5 µM | > 10 | > 10 | 0.12 | 0.07 | 94 | 98 | 85 | 14.7 ± 4.5 µM |  |  |  |  |  |  | 
2 | N#Cc1c(-c2cccnc2)[nH]c2c(I)cccc12 [Compound 6p, 7-Iodo-2-(pyridin-3-yl)-1H-indole-3-carbonitrile] | 0.3 |  | > 10 |  |  |  | > 10 | 0.2 |  |  |  | 10.0 (7.21–12.9) µM | 0.08 | < 20 | < 20 | < 20 | 3.89 | 3.89 | 
3 | N#Cc1c[nH]c2c(Br)cccc12 [Compound 6b, 7-Bromo-1H-indole-3-carbonitrile] | 5.9 | > 10 | > 10 | 136 ± 11 µM | > 10 | > 10 | 4 | 2.9 |  |  |  | 142 ± 14 µM |  |  |  |  |  |  | 
4 | N#Cc1c[nH]c2c(I)cccc12 [Compound 6c, 7-Iodo-1H-indole-3-carbonitrile] | 1.8 | > 10 | 8 | 45.2 (44.8–45.6) µM | > 10 | 8 | 1.8 | 1.9 |  |  |  | 261 (254–267) µM |  |  |  |  |  |  | 
5 | N#Cc1c(CC(O)CO)[nH]c2c(Cl)cccc12 (centres unmarked) [Compound 14, 7-Chloro-2-(2,3-dihydroxypropyl)-1H-indole-3-carbonitrile] | 4.2 |  | 10 | 3447 ± 182 ^c µM |  |  | 2 | 2 |  |  |  |  | 2 | < 20 | < 20 | < 20 | 4.59 | 4.59 | 2
